# Assays:
# Format in all cases: cell-based
# [1] = tested on: Human lymphoma jurkat cells; experiment: Killing of cultured Jurkats with and without anti-Fas (propidium iodide, Facs); details: 19 hours
# Protocol: Jurkats are a T-cell derived lymphoma cell line which expresses both FAS receptor and Fas-L. These cells, however, are only mildly sensitive to Fas-L/anti-Fas induced apoptosis. Select compounds were tested for their ability to kill jurkats. Additionally, we investigated the ability of select compounds to sensitize jurkats to anti-Fas mediated apoptosis.
# Human lymphoma jurkat cells were cultured in suspension in 24 well plates. Jurkat cell were treated with test compounds either alone or in the presence of suboptimal doses of anti-Fas antibody. […] Cells were incubated with propidium iodide and the percentage of cells that incorporated the stain was counted by Facs.
# Human lung H460 cells = experiment: Killing of H460 cells (Alamar Blue, 24 hour treatment)
# Protocol: H460 is representative of a […] cancer cell line.
# (§1) Human lung H460 cells (7000 cells/well) were cultured in 96 well dishes. Cells were treated with various concentrations of test compounds for 24 hours. Media was then removed and replaced with fresh media containing Alamar Blue. The cells were incubated for a further 4 hours and Alamar blue and conversion was assessed by fluorescence. Compound effectiveness was determined by assessing the reduction in Alamar blue bioconversion following 24 hour treatment.
# [2] = tested on: Human prostate DU145 cells; experiment: Killing of DU145 prostate cancer cells (Alamar Blue, 7 day treatment)
# Protocol: Prostate cancer is often resistant to traditional chemotherapies. DU145 is representative prostated cancer cell line. DU145 cells were cultured in the presence of various concentrations of compound 136. Compound 136 kills 100% of the cells at 10 μM, with an IC50 of approximately 7 μM.
# as §1, with “prostate DU145” for “lung H460”, “cells” for “cells (7000 cells/well)”, “7 days.” for “24 hours.”, “7 day” for “24 hour”
# [3] = Dose 3, with anti-Fas (5 ng/mL)
# [4] = Dose 10, with anti-Fas (5 ng/mL)
# [5] = Dose 0.3, with anti-Fas (5 ng/mL)
# [6] = Dose 1, with anti-Fas (5 ng/mL)
# [7] = Dose 30, with anti-Fas (5 ng/mL)
Molecule,Survival % Without Anti-Fas ([1]; Dose 3 (μM)),"Survival % With Anti-Fas [1, 3]",Survival % Without Anti-Fas ([1]; Dose 10 (μM)),"Survival % With Anti-Fas [1, 4]",other results
"Cc1cn(C2=C(c3cn(CCCSC(=N)N)c4ccccc34)C(=O)NC2=O)c2ccccc12 [Example 146, 3-(3-((amidiothio)propyl)indol-3-yl)-4-(3-methylindol-1-yl)-pyrrole-2,5-dione]",>90%,20%,0%,–,–
"N=C(N)SCCCn1cc(C2=C(N3CCc4ccccc43)C(=O)NC2=O)c2ccccc21 [Example 159, 3-(3-((amidiothio)propyl)indol-3-yl)-4-(indolin-1-yl)-pyrrole-2,5-dione]",>90%,10%,17%,–,–
"N=C(N)SCCCn1cc(C2=C(n3ccc4ccccc43)C(=O)NC2=O)c2cc(OCc3ccccc3)ccc21 [Example 148, 3-(3-((amidiothio)propyl)-5-benzyloxyindol-3-yl)-4-(indol-1-yl)-pyrrole-2,5-dione]",>90%,–,0%,20%,–
"Cc1cc2ccccc2n1C1=C(c2cn(CCCSC(=N)N)c3ccc(OCc4ccccc4)cc23)C(=O)NC1=O [Example 150, 3-(3-((amidiothio)propyl)-5-benzyloxyindol-3-yl)-4-(2-methylindol-1-yl)-pyrrole-2,5-dione]",>90%,5%,0%,–,–
Cn1cc(C2=C(n3cc(CCCSC(=N)N)c4ccccc43)C(=O)NC2=O)c2ccccc21 [Example 167],50%,5%,0%,0%,"IC50 (Human lung H460 cells): ~3000 nM; Survival % Without Anti-Fas ([1]; Dose 0.3 (μM)): 98%; Survival % With Anti-Fas [1, 5]: 43%; Survival % Without Anti-Fas ([1]; Dose 1 (μM)): 88%; Survival % With Anti-Fas [1, 6]: 17%; Survival % Without Anti-Fas ([1]; Dose 30 (μM)): 0%; Survival % With Anti-Fas [1, 7]: 0%"
"Cc1cn(C2=C(c3cn(CCCSC(=N)N)c4ccc(OCc5ccccc5)cc34)C(=O)NC2=O)c2ccccc12 [Example 149, 3-(3-((amidiothio)propyl)-5-benzyloxyindol-3-yl)-4-(3-methylindol-1-yl)-pyrrole-2,5-dione]",>90%,2%,0%,–,–
"3-(3-(amidinothio)propyl)indol-1-yl)-4-(5-benzyloxy-1-methylindol-3-yl)-4-pyrrole-2,5-dione [Example 168]",46%,1%,1%,0%,"Survival % Without Anti-Fas ([1]; Dose 0.3 (μM)): 91%; Survival % With Anti-Fas [1, 5]: 49%; Survival % Without Anti-Fas ([1]; Dose 1 (μM)): 89%; Survival % With Anti-Fas [1, 6]: 49%; Survival % Without Anti-Fas ([1]; Dose 30 (μM)): 0%; Survival % With Anti-Fas [1, 7]: 0%"
"CN(C)CCCn1cc(C2=C(n3ccc4ccccc43)C(=O)NC2=O)c2cc(OCc3ccccc3)ccc21 [Example 136, 3-(5-benzyloxy-1-(3-dimethylaminopropyl)indol-3-yl)-4-(indol-1-yl)-pyrrole-2,5-dione]",–,–,–,–,"cells killed ([2]; 10 μM): 100%; IC50 ([2]; Homo sapiens, DU-145, 168 h, 7 days of treatment): ~7 µM"
N=C(N)SCCCn1c2ccccc2c2c3c(n4c5ccccc5cc4c21)C(=O)NC3=O [Example 145],93%,35%,11%,–,–
"N=C(N)SCCCn1cc(C2=C(n3ccc4cc(OCc5ccccc5)ccc43)C(=O)NC2=O)c2ccccc21 [Example 147, 3-(3-((amidiothio)propyl)indol-3-yl)-4-(5-benzyloxyindol-1-yl)-pyrrole-2,5-dione]",>90%,20%,0%,–,–
